Columns and labels:
GR = assay: Dexamethasone-induced TAT activity in primary hepatocytes from monkeys; type: cell-based
Method: Dazucorilant is selective for GR over other nuclear hormone receptors, and a range of other receptors, enzymes, and ion channels. For example, dazucorilant has high selectivity for GR relative to the progesterone receptor (PR), androgen receptor, and estrogen receptor, showing no significant binding to these receptors at a concentration of 10 μM (0%, 1.5% and […], respectively).

[1] = target: T1, mineralocorticoid receptor (MR) (Homo sapiens, UniProt P08235); assay: MR reporter gene assay; type: cell-based
T1 sequence (P08235 1-984): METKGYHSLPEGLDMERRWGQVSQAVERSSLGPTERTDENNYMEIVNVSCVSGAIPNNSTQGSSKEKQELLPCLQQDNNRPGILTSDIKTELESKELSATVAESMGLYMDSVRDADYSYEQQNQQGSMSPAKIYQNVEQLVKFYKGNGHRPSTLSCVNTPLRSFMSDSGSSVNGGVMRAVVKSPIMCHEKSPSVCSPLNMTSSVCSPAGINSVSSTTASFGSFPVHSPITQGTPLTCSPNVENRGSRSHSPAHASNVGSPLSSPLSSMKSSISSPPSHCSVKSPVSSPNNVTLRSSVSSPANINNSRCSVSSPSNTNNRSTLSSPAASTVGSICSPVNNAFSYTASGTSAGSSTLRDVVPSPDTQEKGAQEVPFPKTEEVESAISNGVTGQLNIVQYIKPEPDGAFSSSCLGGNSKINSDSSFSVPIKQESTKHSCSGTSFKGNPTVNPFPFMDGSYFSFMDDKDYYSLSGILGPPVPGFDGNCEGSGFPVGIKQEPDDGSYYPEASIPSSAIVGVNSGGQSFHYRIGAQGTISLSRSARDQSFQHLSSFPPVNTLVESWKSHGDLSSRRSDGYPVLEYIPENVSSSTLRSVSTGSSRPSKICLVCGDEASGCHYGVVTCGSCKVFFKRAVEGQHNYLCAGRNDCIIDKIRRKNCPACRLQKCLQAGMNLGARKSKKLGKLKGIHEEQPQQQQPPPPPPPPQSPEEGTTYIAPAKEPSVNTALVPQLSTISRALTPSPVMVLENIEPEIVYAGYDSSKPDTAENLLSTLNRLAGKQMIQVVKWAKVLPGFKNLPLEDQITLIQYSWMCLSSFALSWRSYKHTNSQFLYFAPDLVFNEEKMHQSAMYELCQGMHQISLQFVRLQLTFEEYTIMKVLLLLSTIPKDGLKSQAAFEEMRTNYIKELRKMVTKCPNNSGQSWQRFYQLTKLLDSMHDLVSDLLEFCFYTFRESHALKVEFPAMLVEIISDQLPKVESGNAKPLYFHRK

[2] = First In Human study Part 1, single ascending dose PK with or without food; details: for AUC(0-inf)/D (adjusted geometric mean) / AUC(0-last)/D (adjusted geometric mean) / Cmax/D (adjusted geometric mean): single dose
Method: An adaptive dose, double-blind, placebo-controlled study (NCT04249323, EudraCT 2019-004258-27) was conducted in 110 healthy male and female volunteers (18-60 years old; BMI 18-30 kg/m2; weight≤102 kg; “First In Human” (FIH) study).
ANOVA model of natural log-transformed PK parameters from part 1 of the FIH study, including a term for treatment fitted as fixed effect. PK parameters normalized to the equivalent of a 1-mg dose. AUC, area under the curve; CI, confidence interval; Cmax, maximum concentration; D, dose.
ANOVA model of natural log-transformed PK parameters from part 1 of the FIH study, including a term for treatment fitted as fixed effect. CI, confidence interval; Cmax, maximum concentration; AUC, area under the curve.

[3] = 2-fold dose escalation, 450 mg to 900 mg fed
[4] = 3-fold dose escalation, 150 mg to 450 mg fasted

Structure (SMILES): O=C(c1ccccn1)[C@]12Cc3cnn(-c4ccc(F)cc4)c3C=C1CCN(S(=O)(=O)c1ccc(C(F)(F)F)cc1)C2 [dazucorilant, (R)-(1-(4-fluorophenyl)-6-((4-(trifluoromethyl)phenyl)sulfonyl)-4,4a, 5,6,7,8-hexahydro-1-H-pyrazolo[3,4-g]isoquinolin-4a-yl) (pyridin-2-yl)methanone]
- dexamethasone-induced increase in TAT activity (GR): prevented the dexamethasone-induced increase in TAT activity
- inhibition at 5 µM [1]: 23%
- AUC(0-inf)/D (adjusted geometric mean) ([2]; 150 mg FASTED): 2.18 ng·h/mL/mg
- AUC(0-last)/D (adjusted geometric mean) ([2]; 150 mg FASTED): 1.69 ng·h/mL/mg
- Cmax/D (adjusted geometric mean) ([2]; 150 mg FASTED): 0.494 ng/mL/mg
- exposure in fed vs fasted subjects ([2]; 300 mg with and without food, FIG. 1A/1B): Greater dazucorilant exposure was observed when dazucorilant was administered to fed subjects
- AUC(0-inf) Ratio Fed:Fasted ([2]; 450 mg): 250.7%
- AUC(0-last) Ratio Fed:Fasted ([2]; 450 mg): 250.7%
- Cmax Ratio Fed:Fasted ([2]; 450 mg): 202.3%
- AUC(0-inf) (adjusted geometric mean) ([2]; 450 mg FASTED): 1290 ng·h/mL
- AUC(0-last) (adjusted geometric mean) ([2]; 450 mg FASTED): 1180 ng·h/mL
- Cmax (adjusted geometric mean) ([2]; 450 mg FASTED): 251 ng/mL
- AUC(0-inf)/D (adjusted geometric mean) ([2]; 450 mg FASTED): 2.86 ng·h/mL/mg
- AUC(0-last)/D (adjusted geometric mean) ([2]; 450 mg FASTED): 2.62 ng·h/mL/mg
- Cmax/D (adjusted geometric mean) ([2]; 450 mg FASTED): 0.557 ng/mL/mg
- AUC(0-inf) (adjusted geometric mean) ([2]; 450 mg FED): 3220 ng·h/mL
- AUC(0-last) (adjusted geometric mean) ([2]; 450 mg FED): 2950 ng·h/mL
- Cmax (adjusted geometric mean) ([2]; 450 mg FED): 508 ng/mL
- AUC(0-inf)/D (adjusted geometric mean) ([2]; 450 mg FED): 7.17 ng·h/mL/mg
- AUC(0-last)/D (adjusted geometric mean) ([2]; 450 mg FED): 6.56 ng·h/mL/mg
- Cmax/D (adjusted geometric mean) ([2]; 450 mg FED): 1.13 ng/mL/mg
- AUC(0-inf)/D Ratio High:Low Dose ([2]; 450 mg vs 150 mg FASTED): 131.3%
- AUC(0-last)/D Ratio High:Low Dose ([2]; 450 mg vs 150 mg FASTED): 155.2%
- Cmax/D Ratio High:Low Dose ([2]; 450 mg vs 150 mg FASTED): 112.9%
- AUC(0-inf)/D (adjusted geometric mean) ([2]; 900 mg FED): 10.2 ng·h/mL/mg
- AUC(0-last)/D (adjusted geometric mean) ([2]; 900 mg FED): 8.33 ng·h/mL/mg
- Cmax/D (adjusted geometric mean) ([2]; 900 mg FED): 1.23 ng/mL/mg
- AUC(0-inf)/D Ratio High:Low Dose ([2]; 900 mg vs 450 mg FED): 42.3%
- AUC(0-last)/D Ratio High:Low Dose ([2]; 900 mg vs 450 mg FED): 127.0%
- Cmax/D Ratio High:Low Dose ([2]; 900 mg vs 450 mg FED): 109.2%
- increase in AUC(0-inf) on dose escalation [2, 3]: 2.8 fold
- increase in Cmax on dose escalation [2, 3]: 2.2 fold
- increase in AUC(0-inf) on dose escalation [2, 4]: 4.0 fold
- increase in Cmax on dose escalation [2, 4]: 3.4 fold
- food effect, increase in exposure ([2]; high-fat breakfast vs fasting (Table 2, 450 mg)): > 2 fold
